Reference: BindingDB's records for doi:10.7270/Q2H993J6 (Pcmd, 2008)
*1 amine or outer side, *2 acyl side, *3 side chain or, on linkers, in order; H or OH if unused. Where a SMILES comes first, the peptide text is derived from it. The star is where a group is joined. Cbz = O=C(OCc1ccccc1)*; CO = O=C([*:1])[*:2]

Target: Coagulation factor XI (Homo sapiens, UniProt P03951)
Assay: factor XIa inhibitor concentration-response – biochemical, hits from 1536-well screen, dose response (AID 846)
Conditions: pH 7.4; 23 °C

Chain of Coagulation factor XI (P03951 19-387 limits assumed): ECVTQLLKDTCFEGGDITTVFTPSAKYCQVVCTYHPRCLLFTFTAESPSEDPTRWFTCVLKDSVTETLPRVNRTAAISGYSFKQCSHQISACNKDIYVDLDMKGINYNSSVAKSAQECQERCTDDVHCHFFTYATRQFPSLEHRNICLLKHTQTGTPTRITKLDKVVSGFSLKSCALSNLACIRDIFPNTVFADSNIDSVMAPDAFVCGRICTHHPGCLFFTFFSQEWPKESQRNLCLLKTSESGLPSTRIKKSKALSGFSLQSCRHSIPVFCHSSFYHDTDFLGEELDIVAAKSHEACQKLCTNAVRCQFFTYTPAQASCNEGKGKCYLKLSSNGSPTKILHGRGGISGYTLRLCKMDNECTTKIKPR
Chain of Coagulation factor XI (P03951 388-625 limits assumed): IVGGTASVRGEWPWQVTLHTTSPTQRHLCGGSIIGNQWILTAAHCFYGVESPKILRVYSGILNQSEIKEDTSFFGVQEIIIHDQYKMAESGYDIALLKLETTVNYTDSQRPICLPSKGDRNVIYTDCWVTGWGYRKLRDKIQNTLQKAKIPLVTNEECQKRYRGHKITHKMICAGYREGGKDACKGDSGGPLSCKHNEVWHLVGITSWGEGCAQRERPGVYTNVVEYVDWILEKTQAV

SMILES | IC50 [µM]
Cc1nnc(SCCn2c(Br)nc3c2c(=O)[nH]c(=O)n3C)s1 | > 50
[O-][S+](NC1CCCCC1)C12CC3CC(CC(C3)C1)C2 (stereo not given) | > 50
O=C(Oc1cncc(Cl)c1)c1ccco1 | 0.741
Cc1cccc(NC(=O)c2cc(-n3c(O)ccc3O)ccc2Cl)n1 | > 50
CCc1cccc(NC(=O)Cc2ccc([N+](=O)[O-])cc2)c1 | > 50
COc1ccc([N+](=O)[O-])cc1NC(=O)CC1S/C(=N\c2cccc(C)c2C)N(N=Cc2cccc(OC)c2OC)C1=O (stereo not given) | > 50
Cc1nc2ccccc2c(=O)n1NC(=O)c1cc(Br)ccc1Cl | > 50
COc1cccc(C(=O)OCCN2CCOCC2)c1 | > 50
COc1ccc(C(=O)NN=Cc2cc3ccccc3[nH]c2=O)cc1 | > 50
C=C(C)CNC(=S)Nc1cccc(N)n1 | > 50
CCNc1cc(N2CCNCC2)ccc1[N+](=O)[O-] | > 50
O=C(NCc1ccccc1)c1ccc(Cl)nc1 | > 50
CCc1ccccc1-n1c(O)cc(=O)[nH]c1=O | > 50
O=C(CSc1ncccn1)NN=Cc1cccc(OC2CSC2)c1 | > 50
COc1ccc(-c2n[nH]cc2C2N=C(N)Nc3nc4ccccc4n32)cc1 (stereo not given) | > 50
O=C(NN=C1CCCC1)c1ccccc1OCc1ccc(Cl)cc1 | > 50
O=C(NNC1=NCCCCC1)Nc1cccc(Cl)c1 | > 50
CCOC(=O)C(=O)N(Nc1ccc(C)cc1)c1ccc(C)cc1 | > 50
CCOc1ccc(-c2c(C)[n+](-c3ccc(OCC)cc3)c3n2CCCCC3)cc1 | 0.958
CC(C)(C)C(=O)CSc1ncnc2c1cnn2-c1ccccc1 | > 50
Cc1ccc(C(=O)C(=O)c2ccc(C)c(N)c2)cc1N | > 50
NS(=O)(=O)c1ccc(Cl)cc1[N+](=O)[O-] | > 50

SMILES | IC50 [µM]
Oc1cc(Sc2ccc(Cl)cc2)c(O)n1-c1ccc2c(c1)OCCO2 | > 50
CC(C=NNC(=O)c1cc(-c2cccn2C)n[nH]1)=Cc1ccccc1 | > 50
Cc1cc(C(=O)Cn2nc(C(=O)O)c3ccccc3c2=O)c(C)n1-c1cccc(C(F)(F)F)c1 | > 50
COc1cc(CN=Nc2cc(C)nc(NS(=O)(=O)c3ccccc3)n2)ccc1O | > 50
CCc1ccc[n+](-c2[n-]c(=O)sc2C=NNC(N)=O)c1 | > 50
COc1ccc(S(=O)(=O)NCc2c(-c3ccccc3)noc2C)c(OC)c1 | > 50
CC(=O)c1ccc(NC(S)=Nc2cccc3cnccc23)cc1 [1-(4-acetylphenyl)-3-(5-isoquinolinyl)thiourea] | > 50
O=C(Nc1ccc(Cl)cc1)Nc1nc(-c2ccccc2O)cs1 [1-(4-chlorophenyl)-3-[4-(2-hydroxyphenyl)-1,3-thiazol-2-yl]urea] | > 50
Cc1ccc(C(=O)n2nc(-c3cccnc3)nc2N)cc1 [1-(4-methylbenzoyl)-3-(3-pyridinyl)-1H-1,2,4-triazol-5-amine] | > 50
CCn1c(C)nc2cc(C(=O)NN=C(C)c3ccc(OC)cc3O)ccc21 [1-ethyl-N'-[(1E)-1-(4-methoxy-6-oxidanylidene-cyclohexa-2,4-dien-1-ylidene)ethyl]-2-methyl-benzimidazole-5-carbohydrazide] | > 50
N#CCCC1CCCC=C1N(Cc1ccccc1)C(=O)C(Cl)Cl (stereo not given) [2,2-bis(chloranyl)-N-[6-(2-cyanoethyl)cyclohexen-1-yl]-N-(phenylmethyl)ethanamide] | > 50
Cc1ccc(C)c(S(=O)(=O)ON2C(=O)c3ccccc3C2=O)c1 [2,5-dimethylbenzenesulfonic acid (1,3-dioxo-2-isoindolyl) ester] | 0.762
O=C(Cn1c(-c2ccccn2)nc2ccccc21)NN=Cc1cccnc1 [2-(2-pyridin-2-ylbenzimidazol-1-yl)-N-(pyridin-3-ylmethylideneamino)acetamide] | > 50
CCn1nc(CC(=O)O)c2ccccc2c1=O [2-(3-ethyl-4-oxidanylidene-phthalazin-1-yl)ethanoic acid] | > 50
Cc1sc2c(c1C)C(=O)NC(c1cccc(O)c1)N2 (stereo not given) [2-(3-hydroxyphenyl)-5,6-dimethyl-2,3-dihydrothieno[2,3-d]pyrimidin-4(1H)-one] | > 50
CCN1CCN(CC(=O)Nc2cc(C)on2)CC1 [2-(4-ethylpiperazin-1-yl)-N-(5-methyl-1,2-oxazol-3-yl)acetamide;oxalic acid] | > 50
CN(Cc1ccon1)C(=O)CC1C(=O)NCCN1CC1CCCCC1 (stereo not given) [2-[1-(cyclohexylmethyl)-3-oxopiperazin-2-yl]-N-(isoxazol-3-ylmethyl)-N-methylacetamide] | > 50
CCOc1cc(CO)ccc1OCC(=O)N1CCCCC1 [2-[2-ethoxy-4-(hydroxymethyl)phenoxy]-1-(1-piperidinyl)ethanone] | > 50
CCOc1ccc(NC(=O)CN2C(=O)/C(=C3\SC(=S)N(C4CCS(=O)(=O)C4)C3=O)c3ccccc32)cc1 (stereo not given) [2-[(3Z)-3-[3-[1,1-bis(oxidanylidene)thiolan-3-yl]-4-oxidanylidene-2-sulfanylidene-1,3-thiazolidin-5-ylidene]-2-oxidanylidene-indol-1-yl]-N-(4-ethoxyphenyl)ethanamide;ethanoic acid] | > 50
O=C(Nc1ccc(Cl)cc1)Nc1ccccc1C(=O)NCc1ccco1 [2-[(4-chlorophenyl)carbamoylamino]-N-(furan-2-ylmethyl)benzamide] | > 50
COc1ccc(CSc2nc(C)cc(C)c2S(C)(=O)=O)cc1 [2-[(4-methoxybenzyl)sulfanyl]-4,6-dimethyl-3-pyridinyl methyl sulfone] | > 50
CC(C)NC(=O)CSc1nc(-c2ccccc2)cs1 [2-[(4-phenyl-1,3-thiazol-2-yl)sulfanyl]-N-propan-2-yl-ethanamide] | > 50

SMILES | IC50 [µM]
CCOC(=O)COc1cc(O)c2c(=O)cc(-c3ccccc3)oc2c1 [2-[(5-hydroxy-4-oxo-2-phenyl-1-benzopyran-7-yl)oxy]acetic acid ethyl ester] | > 50
CC(C)[C@H](NC(=O)[C@H](CCCNC(=N)N)NC(=O)N[C@@H](Cc1ccccc1)C(=O)O)C(=O)N[C@H](C=O)CCCNC(=N)N [2-[[[[(2S)-5-(diaminomethylideneamino)-1-[[(2S)-1-[[5-(diaminomethylideneamino)-1-oxopentan-2-yl]amino]-3-methyl-1-oxobutan-2-yl]amino]-1-oxopentan-2-yl]amino]-oxomethyl]amino]-3-phenylpropanoic acid] ({Phe-CO}-Arg-Val-Arg-aldehyde) | 3.81
N#Cc1ccsc1NC(=O)CN(Cc1ccccc1)Cc1ccccc1 [2-[bis(phenylmethyl)amino]-N-(3-cyano-2-thiophenyl)acetamide] | > 50
CS(=O)(=O)c1ccc(Cl)c(NC(=O)COC(=O)CNC(=O)c2ccccc2)c1 [2-benzamidoacetic acid [2-(2-chloro-5-methylsulfonylanilino)-2-oxoethyl] ester] | > 50
O=C(c1cccn2c(=O)c3cc(Br)ccc3nc12)N1CCC2(CC1)OCCO2 [2-bromanyl-6-(1,4-dioxa-8-azaspiro[4.5]decan-8-ylcarbonyl)pyrido[2,1-b]quinazolin-11-one] | > 50
CC(Cc1ccccc1)=NNC(=O)CNC(=O)c1ccccc1Cl [2-chloro-N-[2-oxo-2-[2-(1-phenylpropan-2-ylidene)hydrazinyl]ethyl]benzamide] | > 50
CC1=C(C(=O)OCCOc2ccccc2)C(c2ccsc2)NC(=O)N1C (stereo not given) [2-phenoxyethyl 3,4-dimethyl-2-oxo-6-thiophen-3-yl-1,6-dihydropyrimidine-5-carboxylate] | > 50
O=C(Oc1ccc2ccc(=O)oc2c1)c1cccs1 [2-thiophenecarboxylic acid (2-oxo-1-benzopyran-7-yl) ester] | 2.68
Cc1cc(C)c(C)c(S(=O)(=O)ON2C(=O)c3ccccc3C2=O)c1C [2-{[(2,3,5,6-tetramethylphenyl)sulfonyl]oxy}-1H-isoindole-1,3(2H)-dione] | 3.2
Cc1n[nH]c(C)c1CCC(=O)NN=Cc1c[nH]c2ccccc12 [3-(3,5-Dimethyl-1H-pyrazol-4-yl)-propionic acid [1-(1H-indol-3-yl)-meth-(E)-ylidene]-hydrazide] | > 50
S=C(NCCc1ccccc1)Nc1ccc(Br)cn1 [3-(5-bromopyridin-2-yl)-1-(2-phenylethyl)thiourea] | > 50
Oc1cc(N2CCC(c3nc4ccccc4o3)CC2)c(O)n1-c1ccc(Cl)c(C(F)(F)F)c1 [3-[4-(1,3-benzoxazol-2-yl)piperidin-1-yl]-1-[4-chloranyl-3-(trifluoromethyl)phenyl]pyrrolidine-2,5-dione] | > 50
Clc1ccccc1Cn1nnc2c(NCCN3CCOCC3)ncnc21 [3-[(2-chlorophenyl)methyl]-N-(2-morpholin-4-ylethyl)triazolo[4,5-d]pyrimidin-7-amine] | > 50
Nn1c(C2CCCCC2)nc2ccccc2c1=O [3-azanyl-2-cyclohexyl-quinazolin-4-one] | > 50
CC(C)C(NC(=O)C(Cc1ccccc1)NC(=O)OCc1ccccc1)C(=O)O (stereo not drawn) [3-methyl-2-[[1-oxo-3-phenyl-2-(phenylmethoxycarbonylamino)propyl]amino]butanoic acid] (Cbz-Phe-Val-OH; configuration not given here) | > 50
CN(Cc1ccccc1)c1nc2c(c(=O)[nH]c(=O)n2C)n1CCCSc1ncccn1 [3-methyl-8-[methyl-(phenylmethyl)amino]-7-(3-pyrimidin-2-ylsulfanylpropyl)purine-2,6-dione] | > 50
Oc1ccc(C=NN2CCN(C3c4ccccc4-c4ccccc43)CC2)c(O)c1 [4-({[4-(9H-fluoren-9-yl)-1-piperazinyl]imino}methyl)-1,3-benzenediol] | > 50
O=C(O)c1ccc(N=C(NS(=O)(=O)c2ccc(Cl)cc2)c2ccccc2)cc1 [4-({[(E)-4-Chloro-benzenesulfonylimino]-phenyl-methyl}-amino)-benzoic acid] | > 50
CCc1cc(-c2n[nH]cc2-c2nc3ccccc3n2C)c(O)cc1O [4-Ethyl-6-[4-(1-methyl-1H-benzoimidazol-2-yl)-1H-pyrazol-3-yl]-benzene-1,3-diol] | > 50
Clc1ccc(-c2csc(N3CCOCC3)n2)cc1 [4-[4-(4-chlorophenyl)-2-thiazolyl]morpholine] | > 50
O=C(O)c1ccc(/C=C2\SC(=S)N(Nc3ccccc3)C2=O)cc1 [4-[4-Oxo-3-phenylamino-2-thioxo-thiazolidin-(5Z)-ylidenemethyl]-benzoic acid] | > 50
